The test system of the first assay is JHOS2. Nature of the assay: drug sensitivity score (DSS) from 5-point dose-response viability curve (DSS (area-under-curve based score)); higher = more sensitive (stronger growth inhibition or killing); extreme values may be limits of the assay. The conditions noted are these: exposure time: 72 h; concentration range: 5 concentrations over 10,000-fold range. The procedure, abridged:
(§1)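 Drug sensitivity scores were calculated in Breeze software for each cell line and drug pair; higher scores indicate more sensitivity. A score of zero indicates no response. The underlying assay used 384-well plates: drugs were placed by an Echo 550 acoustic dispenser at five concentrations spanning a 10,000-fold range, 1,500 ovarian cancer or normal ovarian cells were added per well, and cells were kept 3 days at 37°C, 5% CO2. Viability was then measured with CellTiter-Glo luminescence on a PHERAstar FS.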
The compound `CN1CC[C@H](c2c(O)cc(O)c3c(=O)cc(-c4ccccc4Cl)oc23)[C@H](O)C1` [Alvocidib] came in with a drug sensitivity score of 14.
Still for that read-out and setting: under `O=C1NC(=O)[C@@H](c2cn3c4c(cccc24)CCC3)[C@@H]1c1c[nH]c2ccccc12` [Tivantinib] stands 3.
Compound `C[C@@H](Nc1cc(F)cc(F)c1)c1cc(C(=O)N(C)C)cc2c(=O)cc(N3CCOCC3)oc12` [AZD-8186] yielded a drug sensitivity score of 0.8.
For `O=C1Cc2cc(C(=O)NC3C[C@H]4CC[C@@H](C3)N4S(=O)(=O)CC3CCN(CCCC(F)(F)F)CC3)c(Cl)cc2N1` (some centres not stated), the drug sensitivity score is 0.
As for `C/C(=C\c1csc(C)n1)[C@@H]1C[C@@H]2O[C@]2(C)CCC[C@H](C)[C@H](O)[C@@H](C)C(=O)C(C)(C)[C@@H](O)CC(=O)N1` [Ixabepilone], the drug sensitivity score turned out to be 2.7.
With `COc1ccc(COc2cc3oc(=O)c4cc(C(C)O)ccc4c3cc2OC)cc1` (configuration not stated) [Palomid-529], the drug sensitivity score came to 0.
On the same count and under the same terms, for `Nc1ncn([C@@H]2O[C@H](CO)[C@@H](O)[C@H]2O)c(=O)n1` [Azacitidine] the value was 4.4; for `Cc1nn(C)c(COc2ccc(N3CCN(S(=O)(=O)N(C)C)CC3)cc2)c1-c1cccc2c(CCCOc3cccc4ccccc34)c(C(=O)O)n(CCN3CCOCC3)c12`, 6.3; for `C=C1C[C@@H]2[C@H](CC[C@]3(C)C(=O)CC[C@@H]23)[C@@]2(C)C=CC(=O)C=C12` [Exemestane], 0.
Still for that read-out and setting: under `C[C@@H]1C=C2C(=O)O[C@@H]3CC[C@H](C1)[C@]23O` [Galiellalactone] stands 5.6; under `Cn1c(Nc2ccc(C(F)(F)F)cc2)nc2cc(Oc3ccnc(-c4ncc(C(F)(F)F)[nH]4)c3)ccc21` [NVP-RAF265], 1.2.
Turning to `Cn1ncc(Cl)c1-c1cc(C(=O)N[C@H](CN)Cc2ccc(F)c(F)c2)oc1Cl` [Uprosertib], the drug sensitivity score worked out at 0.
Still for that read-out and setting: under `CC1=C2C[C@H]3[C@@H](CC[C@@H]4C[C@H](NS(C)(=O)=O)CC[C@@]43C)[C@@H]2CC[C@@]2(C1)O[C@@H]1C[C@H](C)CN[C@H]1[C@H]2C` [Saridegib] stands 0.
On the same count and under the same terms, under `COc1cc2c(Oc3ccc(NC(=O)C4(C(=O)Nc5ccc(F)cc5)CC4)cc3F)ccnc2cc1OCCCN1CCOCC1` [Foretinib] stands 0.5.
Same read-out and setting: for `COCCOc1cnc2ccn([C@H](C)c3nnc4c(F)cc(-c5cnn(C)c5)cn34)c(=O)c2c1` [AMG-337] the value was 0; for `Nc1ccccc1NC(=O)c1ccc(CNC(=O)OCc2cccnc2)cc1` [Entinostat], 4.7.

The test system of a further assay is COV318. Described as above. The conditions noted are these: exposure time: 72 h; concentration range: 5 concentrations over 10,000-fold range. Put shortly:
as §1
`Cc1cnc(-c2ccccc2C(C)C)nc1NCc1ccc(-n2ccnn2)cc1` [ML323]: the drug sensitivity score was 0.1.
The same measure, in the same setting: under `Cc1ccc(C(=O)Nc2cccc(C(F)(F)F)c2)cc1Nc1nc(-c2cccnc2)nc2c1cnn2C` [NVP-BHG712] stands 2.8; under `COc1cc2c(cc1OCCCN1CCCC1)N=C(N)C21CCC1` [A-366], 0.
For `CS(=O)(=O)c1ccc(C(=O)Nc2ccc(Cl)c(-c3ccccn3)c2)c(Cl)c1` [Vismodegib], the drug sensitivity score was 0.
Same read-out and setting: for `COc1cc2c(Oc3ccc4[nH]c(C)cc4c3F)ncnc2cc1OCCCN1CCCC1` [Cediranib] the value was 0.2; for `CCNC(=O)c1noc(-c2cc(C(C)C)c(O)cc2O)c1-c1ccc(CN2CCOCC2)cc1` [Luminespib], 11.6; for `Cc1cnc(Nc2ccc(OCCN3CCCC3)cc2)nc1Nc1cccc(S(=O)(=O)NC(C)(C)C)c1` [Fedratinib], 3.7.
In turn, `CNC(=O)c1ccc(C)c(-n2c(C)cc(OCc3ccc(F)cc3F)c(Br)c2=O)c1` yielded a drug sensitivity score of 0.
On to `Cc1nc(Nc2n[nH]c3c2CN(C(=O)N[C@H](CN(C)C)c2ccccc2)C3(C)C)c2sccc2n1`, for which the drug sensitivity score amounted to 7.2.
Compound `CCN(CC)Cc1ccc2cc(COC(=O)Nc3ccc(C(=O)NO)cc3)ccc2c1` [Givinostat] displayed a drug sensitivity score of 4.2.
Compound `CC(C)(C)Cn1c(N)nc2ccc(-c3[nH]c(C(C)(C)C)nc3-c3ccc(F)cc3)nc21` [Ralimetinib] registered a drug sensitivity score of 2.6.
For the compound `COc1cc2nccc(Oc3ccc(NC(=O)NC4CC4)c(Cl)c3)c2cc1C(N)=O` [Lenvatinib], the drug sensitivity score amounted to 0.9.
The compound `S=c1[nH]cnc2nc[nH]c12` [Mercaptopurine] came in with a drug sensitivity score of 0.1.
Still for that read-out and setting: for `CNc1nc(Nc2cn(C(C)(C)C#N)nc2C)ncc1C(F)(F)F` [GNE-0877] the value was 0.
`COc1cc2nccc(Oc3ccc(NC(=O)C4(C(=O)Nc5ccc(F)cc5)CC4)cc3)c2cc1OC` [Cabozantinib]: the drug sensitivity score came to 2.2.
For `CN1CC[C@H](c2c(O)cc(O)c3c(=O)cc(-c4ccccc4Cl)oc23)[C@H](O)C1` [Alvocidib], the drug sensitivity score was 11.5.
As to `O=C1NC(=O)[C@@H](c2cn3c4c(cccc24)CCC3)[C@@H]1c1c[nH]c2ccccc12` [Tivantinib], the drug sensitivity score was found to be 1.9.
`C[C@@H](Nc1cc(F)cc(F)c1)c1cc(C(=O)N(C)C)cc2c(=O)cc(N3CCOCC3)oc12` [AZD-8186] had a drug sensitivity score of 0.7.
On to `O=C1Cc2cc(C(=O)NC3C[C@H]4CC[C@@H](C3)N4S(=O)(=O)CC3CCN(CCCC(F)(F)F)CC3)c(Cl)cc2N1` (some centres not stated), for which the drug sensitivity score turned out to be 0.
`C/C(=C\c1csc(C)n1)[C@@H]1C[C@@H]2O[C@]2(C)CCC[C@H](C)[C@H](O)[C@@H](C)C(=O)C(C)(C)[C@@H](O)CC(=O)N1` [Ixabepilone] had a drug sensitivity score of 2.9.
On the same count and under the same terms, for `COc1ccc(COc2cc3oc(=O)c4cc(C(C)O)ccc4c3cc2OC)cc1` (configuration not stated) [Palomid-529] the value was 1.2; for `Nc1ncn([C@@H]2O[C@H](CO)[C@@H](O)[C@H]2O)c(=O)n1` [Azacitidine], 1.1.
`Cc1nn(C)c(COc2ccc(N3CCN(S(=O)(=O)N(C)C)CC3)cc2)c1-c1cccc2c(CCCOc3cccc4ccccc34)c(C(=O)O)n(CCN3CCOCC3)c12`: the drug sensitivity score was determined as 5.4.
For the compound `C=C1C[C@@H]2[C@H](CC[C@]3(C)C(=O)CC[C@@H]23)[C@@]2(C)C=CC(=O)C=C12` [Exemestane], the drug sensitivity score stood at 0.
As for `C[C@@H]1C=C2C(=O)O[C@@H]3CC[C@H](C1)[C@]23O` [Galiellalactone], the drug sensitivity score was determined as 3.8.
`Cn1c(Nc2ccc(C(F)(F)F)cc2)nc2cc(Oc3ccnc(-c4ncc(C(F)(F)F)[nH]4)c3)ccc21` [NVP-RAF265]: the drug sensitivity score amounted to 0.
As for `Cn1ncc(Cl)c1-c1cc(C(=O)N[C@H](CN)Cc2ccc(F)c(F)c2)oc1Cl` [Uprosertib], the drug sensitivity score is 0.4.
As for `CC1=C2C[C@H]3[C@@H](CC[C@@H]4C[C@H](NS(C)(=O)=O)CC[C@@]43C)[C@@H]2CC[C@@]2(C1)O[C@@H]1C[C@H](C)CN[C@H]1[C@H]2C` [Saridegib], the drug sensitivity score stood at 0.
In the case of `COc1cc2c(Oc3ccc(NC(=O)C4(C(=O)Nc5ccc(F)cc5)CC4)cc3F)ccnc2cc1OCCCN1CCOCC1` [Foretinib], the drug sensitivity score was found to be 1.3.
Regarding `COCCOc1cnc2ccn([C@H](C)c3nnc4c(F)cc(-c5cnn(C)c5)cn34)c(=O)c2c1` [AMG-337], the drug sensitivity score turned out to be 0.
Still for that read-out and setting: under `Nc1ccccc1NC(=O)c1ccc(CNC(=O)OCc2cccnc2)cc1` [Entinostat] stands 4.3.
